Assays:
[1] = biological target: T1, MaoN (Aspergillus niger, UniProt P46882); assay: Enzymatic N-dealkylation assay MAOs/CAOs, HPLC product release; type: biochemical; conditions: 10 mM substrate, phosphate buffer pH 7,5, 37 °C, at least 48 h
T1 construct: His-tag (N); made in house; host or cells: Escherichia coli BL21(DE3) pET21a
Description: (§1) Die Expression der in Tabelle 1 gezeigten MAOs und CAOs erfolgte im Stamm E. coli BL21(DE3). Der Zellaufschluss erfolgte durch Ultraschallbehandlung und die Enzymreinigung über einen N-terminalen His-tag und das IMAC-System (Nickel-NTA) nach Angaben des Herstellers (Fisher Scientific GmbH) mit anschließender Umpufferung in einen Lagerpuffer (25 mM Tris/HCl pH 7.8, 1 mM dithiothreitol (DTT), 1 mM PMSF, 300 mM NaCl) über PD-10-Säulen nach Angaben des Herstellers (cytiva). Die erfolgreiche Expression und Aufreinigung wurde über ein SDS-PAGE kontrolliert. Tabelle 1: Untersuchte Enzyme im Rahmen der enzymatischen N-Dealkylierung.
(§2) Für MAOs/CAOs erfolgte die Reaktion im 200 µL Maßstab bei 37 °C für mindestens 48 h und 200 rpm. Dazu wurden 100 µL der oben beschriebenen Enzympräparate in Phosphatpuffer (bevorzugt zwischen 50 bis 200 mM, pH 7,5) mit 10 mM eines der sechs in Tabelle 2 gelisteten Substrate versetzt. Als Co-Solvenz für das Substrat wurde Dimethylsulfoxid eingesetzt (maximal 5 % (w/w) der finalen Umsetzungsreaktion). Um eine ausreichende Sauerstoffversorgung über den Kopfraum des Reaktionsansatzes zu gewährleisten, wurden Reaktionsgefäße oder Mikrotiterplatten in eckiger Ausführungsform und 10-fachem Gesamtvolumen bevorzugt.
(§3) Als Negativkontrollen wurden für alle Substrate und Bedingungen Assays ohne Enzymlösung durchgeführt. Alle Assays erfolgten mindestens in Triplikaten.
(§4) Zum Abstoppen der enzymatischen Reaktion und Extraktion erfolgte die Verdünnung des Reaktionsansatzes in gleichen Teilen Acetonitril. Die Proben wurden filtriert und die Produktfreisetzung per HPLC analysiert (ZORBAX Eclipse C18 Säule (Partikelgröße von […], 4,6 × 75 mm (Agilent Technologies, Santa Clara, USA), 40 °C, Laufmittel A: Acetonitril mit 5 % Reinstwasser, Laufmittel B: 10 mM Natriumphosphat-Puffer pH 7,0 mit 5 % ACN, Fluss: 1 mL/min). Das Profil der HPLC-Methode ist in Tabelle 3 gezeigt. Tabelle 4 zeigt die Elutionszeiten der Komponenten mit dieser Messmethode. Tabelle 3: Profil der HPLC-Methode.

[2] = biological target: T2, MaoN5 (Aspergillus niger, UniProt P46882, D385S/I246M/N336S/T384N); assay: as above; type: biochemical; conditions: for enzymatischer Abbau von Modell-N-Alkylverbindungen: MaoN5: 10 mM substrate, phosphate buffer pH 7,5, 37 °C, at least 48 h; for Aktivität / Freisetzung des Zielprodukts: MaoN5
T2 construct: His-tag (N); made in house; host or cells: Escherichia coli BL21(DE3) pET21a
Description: as §1, §2, §3, §4

[3] = tested on: ChaO YT02; assay: as above; type: biochemical, Acinetobacter sp. YT-02; conditions: for enzymatischer Abbau von Modell-N-Alkylverbindungen: ChaO YT02: 10 mM substrate, phosphate buffer pH 7,5, 37 °C, at least 48 h
Description: as §1, §2, §3, §4

[4] = tested on: ChaoA L225A; assay: as above; type: biochemical, Brevibacterium oxydans strain IH-35A; conditions: for enzymatischer Abbau von Modell-N-Alkylverbindungen: ChaoA L225A: 10 mM substrate, phosphate buffer pH 7,5, 37 °C, at least 48 h; for Aktivität / Freisetzung des Zielprodukts: ChaoA L225A
Description: as §1, §2, §3, §4

[5] = tested on: UPO #13M1; assay: Enzymatic N-dealkylation assay UPOs with H2O2, HPLC; type: biochemical; conditions: for enzymatischer Abbau von Modell-N-Alkylverbindungen: UPO #13M1: 4 mM substrate, Tricine buffer 100 mM, 30 °C, at least 4 h, H2O2 added every 30 min
Description: (§5) Die vier Enzyme UPO #13, UPO #13M1, UPO #13M3 und UPO #13M5 wurden von Aminoverse B.V. bereitgestellt. Zusätzlich wurde das Wildtyp AaeUPO aus der Basidiomycete Agrocybe aegerita (Ullrich, R., et al. (2004). "Novel haloperoxidase from the agaric basidiomycete Agrocybe aegerita oxidizes aryl alcohols and aldehydes." Appl Environ Microbiol 70(8): 4575-4581) von Aminoverse B.V. erworben.
(§6) Für UPOs erfolgte die Reaktion im 300 µL Maßstab in Tricine Puffer (100 mM) bei 30 °C für mindestens 4 h und 200 rpm. Dazu wurden die von Aminoverse B.V. bereitgestellten Enzympräparate in dH2O gelöst (ca. 0,575 mg/mL) und 30 µL der Enzymlösung in den Assay eingesetzt, welcher mit 4 mM eines der sechs in Tabelle 2 gelisteten Substrate versetzt war. Der Assay wurde mit Zugabe des Co-Substrats H2O2 (1,5 µL einer 200 mM H2O2-Lösung) gestartet, welches alle 30 min wiederholt zugegeben wurde (final 12 µL H2O2).
as §3, §4

[6] = tested on: UPO #13M3; assay: as above; type: biochemical; conditions: for enzymatischer Abbau von Modell-N-Alkylverbindungen: UPO #13M3: 4 mM substrate, Tricine buffer 100 mM, 30 °C, at least 4 h, H2O2 added every 30 min
Description: as §5, §6, §3, §4

[7] = tested on: UPO #13M5; assay: as above; type: biochemical; conditions: for enzymatischer Abbau von Modell-N-Alkylverbindungen: UPO #13M5: 4 mM substrate, Tricine buffer 100 mM, 30 °C, at least 4 h, H2O2 added every 30 min
Description: as §5, §6, §3, §4

[8] = tested on: UPO #13; assay: as above; type: biochemical; conditions: for enzymatischer Abbau von Modell-N-Alkylverbindungen: UPO #13: 4 mM substrate, Tricine buffer 100 mM, 30 °C, at least 4 h, H2O2 added every 30 min
Description: as §5, §6, §3, §4

[9] = biological target: T3, AaeUPO (Cyclocybe aegerita, UniProt B9W4V6); assay: as above; type: biochemical, Agrocybe aegerita; conditions: for enzymatischer Abbau von Modell-N-Alkylverbindungen: AaeUPO: 4 mM substrate, Tricine buffer 100 mM, 30 °C, at least 4 h, H2O2 added every 30 min
T3 construct: purchased Aminoverse B.V
T3 sequence (B9W4V6 44-371): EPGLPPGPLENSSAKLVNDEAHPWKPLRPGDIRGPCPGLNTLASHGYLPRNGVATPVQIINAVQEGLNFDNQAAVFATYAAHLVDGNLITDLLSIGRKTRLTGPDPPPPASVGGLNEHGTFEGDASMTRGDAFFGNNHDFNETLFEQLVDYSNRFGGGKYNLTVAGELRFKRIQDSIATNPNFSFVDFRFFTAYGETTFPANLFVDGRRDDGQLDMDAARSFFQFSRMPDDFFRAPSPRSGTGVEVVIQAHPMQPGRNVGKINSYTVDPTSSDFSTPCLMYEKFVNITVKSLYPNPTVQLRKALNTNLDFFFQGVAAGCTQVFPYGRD
Description: Die vier Enzyme UPO #13, UPO #13M1, UPO #13M3 und UPO #13M5 wurden von Aminoverse B.V. bereitgestellt.
Für UPOs erfolgte die Reaktion im 300 µL Maßstab in Tricine Puffer (100 mM) bei 30 °C für mindestens 4 h und 200 rpm. […] Der Assay wurde mit Zugabe des Co-Substrats H2O2 (1,5 µL einer 200 mM H2O2-Lösung) gestartet, welches alle 30 min wiederholt zugegeben wurde (final 12 µL H2O2).
as §3, §4

[10] = tested on: MAOs/CAOs; assay: Enzymatic N-dealkylation assay, statement for the MAOs/CAOs as a group; type: biochemical
Description: as §1, §2, §3, §4

[11] = UPO #13M1, mol% relative to substrate used
[12] = UPO #13M3, mol% relative to substrate used
[13] = UPO #13M5, mol% relative to substrate used
[14] = UPO #13, mol% relative to substrate used
[15] = AaeUPO, mol% relative to substrate used

T1 sequence (P46882 whole entry): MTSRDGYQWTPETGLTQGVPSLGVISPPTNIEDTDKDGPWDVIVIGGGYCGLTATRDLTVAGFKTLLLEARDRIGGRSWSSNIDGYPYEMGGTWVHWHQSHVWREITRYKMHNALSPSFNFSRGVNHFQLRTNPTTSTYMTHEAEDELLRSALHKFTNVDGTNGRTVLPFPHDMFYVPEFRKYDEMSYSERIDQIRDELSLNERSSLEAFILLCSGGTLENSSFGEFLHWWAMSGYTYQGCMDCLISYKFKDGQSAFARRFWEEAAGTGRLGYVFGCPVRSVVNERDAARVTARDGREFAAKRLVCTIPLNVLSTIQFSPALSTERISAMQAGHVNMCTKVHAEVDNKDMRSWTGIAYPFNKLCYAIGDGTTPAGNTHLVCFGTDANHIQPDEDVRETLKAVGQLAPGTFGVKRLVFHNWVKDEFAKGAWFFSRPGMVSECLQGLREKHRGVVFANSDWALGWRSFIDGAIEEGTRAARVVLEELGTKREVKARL
T2 sequence (P46882 whole entry I246M/N336S/T384N/D385S): as the sequence (P46882 whole entry) above, with I246M, N336S, T384N, D385S counted along it

| SMILES | enzymatischer Abbau von Modell-N-Alkylverbindungen: MaoN [1] | enzymatischer Abbau von Modell-N-Alkylverbindungen: MaoN5 [2] | Aktivität / Freisetzung des Zielprodukts [2] | enzymatischer Abbau von Modell-N-Alkylverbindungen: ChaO YT02 [3] | enzymatischer Abbau von Modell-N-Alkylverbindungen: ChaoA L225A [4] | Aktivität / Freisetzung des Zielprodukts [4] | enzymatischer Abbau von Modell-N-Alkylverbindungen: UPO #13M1 [5] | 4,4'-MDA-Freisetzung [5, 11] | enzymatischer Abbau von Modell-N-Alkylverbindungen: UPO #13M3 [6] | 4,4'-MDA-Freisetzung [6, 12] | enzymatischer Abbau von Modell-N-Alkylverbindungen: UPO #13M5 [7] | 4,4'-MDA-Freisetzung [7, 13] | enzymatischer Abbau von Modell-N-Alkylverbindungen: UPO #13 [8] | 4,4'-MDA-Freisetzung [8, 14] | enzymatischer Abbau von Modell-N-Alkylverbindungen: AaeUPO [9] | 4,4'-MDA-Freisetzung [9, 15] | Aktivität [10] | further results |
| --- | --- | --- | --- | --- | --- | --- | --- | --- | --- | --- | --- | --- | --- | --- | --- | --- | --- | --- |
| CCNc1ccc(Cc2ccc(NCC)cc2)cc1 [N,N'-Diethyl-4,4'-MDA] | nein | schwach | nur sehr schwache 4,4'-MDA-Freisetzung | nein | schwach | nur sehr schwache 4,4'-MDA-Freisetzung | ja/deg^1 | 2,5 mol% | ja/deg^1 | 2,9 mol% | ja/deg^1 | 2,8 mol% | ja/deg^1 | 2,6 mol% | nein | 0 mol% | – | – |
| CNc1ccc(Cc2ccc(NC)cc2)cc1 [N,N'-Dimethyl-4,4'-MDA] | nein | schwach | geringerer Aktivität | nein | schwach | geringerer Aktivität | – | 2,5 mol% | – | 2,8 mol% | – | 2,2 mol% | – | 2,1 mol% | – | 0,7 mol% | – | Abbau des eingesetzten Substrates ([6]; UPO #13M3, substrate no longer detected in HPLC chromatograms): vollständig abgebaut; Abbau des eingesetzten Substrates ([7]; UPO #13M5, substrate no longer detected in HPLC chromatograms): vollständig abgebaut; Abbau des eingesetzten Substrates ([8]; UPO #13, substrate no longer detected in HPLC chromatograms): vollständig abgebaut |
| CN(C)c1ccc(Cc2ccc(N(C)C)cc2)cc1 [N,N,N',N'-Tetramethyl-4,4'-MDA, N,N,N',N'-Tetramethyl-4,4'-diaminodiphenylmethan] | nein | nein | – | nein | nein | – | – | 1,1 mol% | – | 1,4 mol% | – | 1,3 mol% | – | 1,1 mol% | nein | 0,1 mol% | keine reproduzierbare Aktivität | N,N'-Dimethyl-4,4'-MDA - Zwischenprodukt der enzymatischen Reaktion - nachgewiesen [5, 11]: 31,8 mol%; N,N'-Dimethyl-4,4'-MDA - Zwischenprodukt der enzymatischen Reaktion - nachgewiesen [6, 12]: 27,5 mol%; N,N'-Dimethyl-4,4'-MDA - Zwischenprodukt der enzymatischen Reaktion - nachgewiesen [7, 13]: 27,9 mol%; N,N'-Dimethyl-4,4'-MDA - Zwischenprodukt der enzymatischen Reaktion - nachgewiesen [8, 14]: 25,7 mol%; N,N'-Dimethyl-4,4'-MDA - Zwischenprodukt der enzymatischen Reaktion - nachgewiesen [9, 15]: 0 mol% |
| c1ccc(CNc2ccccc2)cc1 [N-Benzylanilin] | nein | nein | – | schwach | schwach | spezifische Aktivität | deg | – | deg | – | deg | – | deg | – | deg | – | – | Aktivität / Freisetzung des Zielprodukts ([3]; ChaO YT02): spezifische Aktivität |
| CCN(C)c1ccccc1 [N-Ethyl-N-Methylanilin] | nein | nein | – | nein | nein | – | – | – | – | – | nein | – | – | – | nein | – | keine Aktivität | Anilin als Zielprodukt ([5]; UPO #13M1): nachgewiesen; Anilin als Zielprodukt ([6]; UPO #13M3): nachgewiesen; Anilin als Zielprodukt ([8]; UPO #13): nachgewiesen |
| CCNc1ccccc1 [N-Ethylanilin] | – | schwach | – | schwach | – | – | deg | – | deg | – | deg | – | deg | – | deg | – | spezifische Aktivität | – |

From patent EP4600367A1, “ENZYMATIC CLEAVAGE OF N-ALKYL COMPOUNDS AFTER CHEMOLYSIS OF POLYURETHANES” (Covestro Deutschland AG, priority 2024, dated 2025)
